{"source": "paper PMC4624630", "about": "“Enzymatic Synthesis of Rhamnose Containing Chemicals by Reverse Hydrolysis” (PLoS ONE, 2015)", "target": "T1, RhaL1 (α-L-rhamnosidase from Alternaria sp. L1) (Alternaria sp. L1, UniProt H6UY33)", "T1 construct": "recombinant, secreted from Pichia pastoris GS115 (vector pPIC9K, SnaBI/NotI), N-glycosylated; about 120 kDa on SDS-PAGE, about 85 kDa after PNGase F", "T1 sequence (H6UY33 20-681)": "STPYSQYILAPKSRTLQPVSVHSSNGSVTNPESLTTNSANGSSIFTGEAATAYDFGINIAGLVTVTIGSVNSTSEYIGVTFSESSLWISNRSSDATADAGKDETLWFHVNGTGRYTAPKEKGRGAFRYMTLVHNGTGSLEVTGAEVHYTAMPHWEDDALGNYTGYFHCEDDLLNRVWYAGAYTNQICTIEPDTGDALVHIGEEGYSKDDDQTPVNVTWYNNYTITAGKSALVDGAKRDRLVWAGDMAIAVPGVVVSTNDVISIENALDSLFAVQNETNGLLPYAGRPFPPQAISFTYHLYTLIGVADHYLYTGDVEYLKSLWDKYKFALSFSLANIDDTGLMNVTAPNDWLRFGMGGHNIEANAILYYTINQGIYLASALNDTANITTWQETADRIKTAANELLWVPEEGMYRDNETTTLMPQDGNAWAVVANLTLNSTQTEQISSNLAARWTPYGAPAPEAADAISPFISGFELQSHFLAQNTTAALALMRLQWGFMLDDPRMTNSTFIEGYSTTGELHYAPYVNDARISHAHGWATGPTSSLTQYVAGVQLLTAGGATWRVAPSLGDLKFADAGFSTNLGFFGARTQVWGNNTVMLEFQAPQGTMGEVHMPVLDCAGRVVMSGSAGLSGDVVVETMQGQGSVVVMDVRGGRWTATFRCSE", "experiment": "reverse hydrolysis; HPLC, product by ESI-MS and NMR", "format": "biochemical", "conditions": "glycosyl donor, acceptor D-mannitol (also D-fructose, esculin); pH 6.5, 55 °C, 48 h"}
{"smiles": "C[C@@H]1OC(O)[C@H](O)[C@H](O)[C@H]1O", "note": "(stereo partly drawn) [L-rhamnose]", "values": [{"measurement": "reverse hydrolysis; HPLC, product by ESI-MS and NMR", "value": "synthesized by the recombinant RhaL1 using L-rhamnose as the glycosyl donor and mannitol as the acceptor"}]}
